# Assay results from patent US20250353842A1, “BICYCLIC AMINE CDK12 INHIBITORS” (Incyte Corporation, priority 2022, published 2025).
# Biological target: CDK12 complexed with Cyclin K (Homo sapiens (Human), UniProt Q9NYV4)
# Test: CDK enzymatic assay (HTRF, LANCE Ultra kinase assay)
# Type: biochemical
# Conditions: 60 minutes pre-incubation, 1 mM ATP
# Protocol: The following activity of the CDK enzymes in complex with their respective cyclins we assayed: CDK1 complexed with Cyclin B1; CDK2 complexed with Cyclin E1; CDK4 complexed with Cyclin D1; CDK6 complexed with Cyclin D1; CDK6 complexed with Cyclin D3; CDK9 complexed with Cyclin T1; CDK7 complexed with Cyclin H/MAT1; CDK2 complexed with Cyclin A2; CDK5 complexed with p35; CDK12 complexed with Cyclin K; CDK13 complexed with Cyclin K. These in vitro enzyme activity are assayed using homogeneous time-resolved energy transfer (HTRF), which measures phosphorylation of a peptide substrate. The LANCE® Ultra kinase assay (PerkinElmer) uses a ULight™-labeled EIF4E-binding protein 1 (THR37/46) peptide (DYSTTPGGTLFSTTPGTRI) (SEQ ID NO: 1) substrate and a Europium-labeled anti-phospho-4E-BP1 antibody (CDK2, CDK1, CDK4, CDK6, CDK9, CDK12, CDK13) or ULight™-labeled Myelin Basic Protein peptide (VTPRTPPP) (SEQ ID NO: 2) substrate and a Europium-labeled anti-phospho-MBP antibody (CDK7). Each CDK enzyme activity assays utilized human CDK co-expressed as N-terminal GST-tagged protein with its full length cyclin partner using a baculovirus expression system.
# Enzyme was pre-incubated with compounds for 30 minutes (CDK1,2,4,6,9) or 60 minutes (CDK7, CDK12, CDK13) prior to addition of ATP and Ulight-peptide (1 mM and 50 nM final, respectively), in assay buffer containing 50 mM HEPES pH 7.5, 1 mM EGTA, 10 mM MgCl2, 2 mM DTT, 0.05 mg/mL BSA, and 0.01% Tween 20.
# The reaction was then incubated for 60-90 minutes at room temperature. The reactions were stopped by the addition of EDTA and Europium labeled antibody, for a final concentration of 15 mM and 1.0-1.5 nM, respectively. HTRF signals were read after 15-120 minutes. A ratio of fluorescence transferred to the labeled substrate (665 nm) relative to fluorescence of the Europium donor (620 nm) represents the extent of phosphorylation. Ratios for treated wells were normalized to DMSO only (100% activity) and no enzyme (0% activity) controls. Normalized data was analyzed using a three or four parameter dose response curve to determine IC50 for each compound and are shown in Table A. Control reference inhibitors were included on each plate.
# Chain of CDK12 complexed with Cyclin K (Q9NYV4 whole entry): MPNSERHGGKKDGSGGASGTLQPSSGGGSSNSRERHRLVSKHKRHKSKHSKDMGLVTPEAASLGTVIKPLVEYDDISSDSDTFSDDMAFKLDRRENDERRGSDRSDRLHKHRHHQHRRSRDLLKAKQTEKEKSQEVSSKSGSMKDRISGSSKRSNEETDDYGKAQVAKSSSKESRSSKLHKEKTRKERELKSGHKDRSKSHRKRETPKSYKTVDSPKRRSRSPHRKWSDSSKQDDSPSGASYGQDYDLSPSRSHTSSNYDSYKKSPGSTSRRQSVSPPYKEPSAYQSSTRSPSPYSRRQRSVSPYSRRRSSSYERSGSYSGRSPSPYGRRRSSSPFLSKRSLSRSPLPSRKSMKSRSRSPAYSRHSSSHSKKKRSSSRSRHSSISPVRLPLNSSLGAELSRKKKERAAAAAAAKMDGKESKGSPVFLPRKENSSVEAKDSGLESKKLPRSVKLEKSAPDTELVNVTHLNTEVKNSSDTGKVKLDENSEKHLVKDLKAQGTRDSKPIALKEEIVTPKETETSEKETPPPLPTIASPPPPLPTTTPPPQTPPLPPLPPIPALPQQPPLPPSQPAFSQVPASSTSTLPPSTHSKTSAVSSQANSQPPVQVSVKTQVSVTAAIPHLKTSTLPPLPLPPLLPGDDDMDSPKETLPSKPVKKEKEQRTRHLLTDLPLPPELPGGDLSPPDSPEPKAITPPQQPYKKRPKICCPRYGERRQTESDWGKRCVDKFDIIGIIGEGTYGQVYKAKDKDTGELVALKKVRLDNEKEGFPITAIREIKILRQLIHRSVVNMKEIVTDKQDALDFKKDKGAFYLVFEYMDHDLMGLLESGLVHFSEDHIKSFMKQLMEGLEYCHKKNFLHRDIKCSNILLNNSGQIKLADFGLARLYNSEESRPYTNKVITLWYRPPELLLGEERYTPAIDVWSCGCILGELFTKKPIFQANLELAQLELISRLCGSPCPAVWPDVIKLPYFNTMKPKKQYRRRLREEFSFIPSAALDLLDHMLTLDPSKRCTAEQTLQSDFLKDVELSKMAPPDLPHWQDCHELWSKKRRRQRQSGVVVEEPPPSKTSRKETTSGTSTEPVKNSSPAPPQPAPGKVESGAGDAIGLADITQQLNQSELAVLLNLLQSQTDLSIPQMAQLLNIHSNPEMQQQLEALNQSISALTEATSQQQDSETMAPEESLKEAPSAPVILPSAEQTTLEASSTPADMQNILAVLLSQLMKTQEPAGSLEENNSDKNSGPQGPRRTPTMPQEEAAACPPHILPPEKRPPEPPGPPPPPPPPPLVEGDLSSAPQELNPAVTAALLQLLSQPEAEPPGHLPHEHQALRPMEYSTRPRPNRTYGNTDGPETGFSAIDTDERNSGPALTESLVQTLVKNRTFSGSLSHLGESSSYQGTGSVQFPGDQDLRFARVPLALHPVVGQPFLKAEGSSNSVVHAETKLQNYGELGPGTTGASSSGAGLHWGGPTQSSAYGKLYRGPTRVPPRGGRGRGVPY
# Chain of CDK12 complexed with Cyclin K (O75909 whole entry partner): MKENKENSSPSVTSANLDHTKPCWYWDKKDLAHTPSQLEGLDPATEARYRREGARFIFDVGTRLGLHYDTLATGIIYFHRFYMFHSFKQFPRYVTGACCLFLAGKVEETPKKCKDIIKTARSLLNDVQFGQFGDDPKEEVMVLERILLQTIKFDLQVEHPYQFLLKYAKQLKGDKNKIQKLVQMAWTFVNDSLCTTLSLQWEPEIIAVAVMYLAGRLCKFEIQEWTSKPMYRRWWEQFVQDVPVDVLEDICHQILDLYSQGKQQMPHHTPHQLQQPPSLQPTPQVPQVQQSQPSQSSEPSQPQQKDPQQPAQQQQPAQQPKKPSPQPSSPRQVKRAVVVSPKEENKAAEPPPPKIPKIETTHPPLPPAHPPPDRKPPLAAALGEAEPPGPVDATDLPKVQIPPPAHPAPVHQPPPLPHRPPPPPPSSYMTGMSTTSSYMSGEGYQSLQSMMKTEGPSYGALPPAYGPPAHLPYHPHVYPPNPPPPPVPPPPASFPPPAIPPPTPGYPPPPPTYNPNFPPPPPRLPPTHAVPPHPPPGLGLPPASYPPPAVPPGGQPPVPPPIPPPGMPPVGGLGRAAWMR
row,Compound,IC50 [nM]
1,"N#Cc1cnc2c(c1)ncn2[C@H]1CCC[C@@H](Nc2ncc(C#N)c(-c3cnn(CCF)c3)n2)C1 [Example 70, 3-((1S,3R)-3-((5-Cyano-4-(1-(2-fluoroethyl)-1H-pyrazol-4-yl)pyrimidin-2-yl)amino)cyclohexyl)-3H-imidazo[4,5-b]pyridine-6-carbonitrile]",< 50
2,"Cc1c(-c2nc(N[C@@H]3CCC[C@H](n4cnc5cc(C#N)cnc54)C3)ncc2C#N)cnn1C [Example 89, 3-((1S,3R)-3-((5-Cyano-4-(1,5-dimethyl-1H-pyrazol-4-yl)pyrimidin-2-yl)amino)cyclohexyl)-3H-imidazo[4,5-b]pyridine-6-carbonitrile]",< 50
3,"FC(F)Cn1cc(-c2nc(N[C@@H]3CCC[C@H](n4cnc5cc(C(F)(F)F)cnc54)C3)ncc2C(F)(F)F)cn1 [Example 4, 4-(1-(2,2-Difluoroethyl)-1H-pyrazol-4-yl)-5-(trifluoromethyl)-N-((1R,3S)-3-(6-(trifluoromethyl)-3H-imidazo[4,5-b]pyridin-3-yl)cyclohexyl)pyrimidin-2-amine]",< 50
4,"CCn1cc(-c2nc(N[C@@H]3CCC[C@H](n4cnc5cccnc54)C3)ncc2C#N)cn1 [Example 24, 2-(((1R,3S)-3-(3H-Imidazo[4,5-b]pyridin-3-yl)cyclohexyl)amino)-4-(1-ethyl-1H-pyrazol-4-yl)pyrimidine-5-carbonitrile]",< 50
5,"Cn1cnc(-c2nc(N[C@@H]3CCC[C@H](n4cnc5cc(C#N)cnc54)C3)ncc2C#N)c1 [Example 61, 3-((1S,3R)-3-((5-Cyano-4-(1-methyl-1H-imidazol-4-yl)pyrimidin-2-yl)amino)cyclohexyl)-3H-imidazo[4,5-b]pyridine-6-carbonitrile]",< 50
6,"N#Cc1cccc2ncn([C@H]3CCC[C@@H](Nc4ncc(C(F)(F)F)c(-c5cnn(CC(F)F)c5)n4)C3)c12 [Example 87, 1-((1S,3R)-3-((4-(1-(2,2-Difluoroethyl)-1H-pyrazol-4-yl)-5-(trifluoromethyl)pyrimidin-2-yl)amino)cyclohexyl)-1H-benzo[d]imidazole-7-carbonitrile]",< 50
7,"Cn1cc(-c2cnc(N[C@@H]3CCC[C@H](n4cnc5cc(C#N)cnc54)C3)nc2-c2cnn(CC(F)F)c2)cn1 [Example 56, 3-((1S,3R)-3-((4-(1-(2,2-Difluoroethyl)-1H-pyrazol-4-yl)-5-(1-methyl-1H-pyrazol-4-yl)pyrimidin-2-yl)amino)cyclohexyl)-3H-imidazo[4,5-b]pyridine-6-caronitrile]",> 500
8,"N#Cc1cnc2c(c1)ncn2[C@H]1CCC[C@@H](Nc2ncc(C#N)c(-c3cnn(C4COC4)c3)n2)C1 [Example 66, 3-((1S,3R)-3-((5-Cyano-4-(1-(oxetan-3-yl)-1H-pyrazol-4-yl)pyrimidin-2-yl)amino)cyclohexyl)-3H-imidazo[4,5-b]pyridine-6-carbonitrile]",< 50
9,"Cc1cc(F)cc2ncn([C@H]3CCC[C@@H](Nc4ncc(C#N)c(-c5cnn(CC(F)F)c5)n4)C3)c12 [Example 54, 4-(1-(2,2-Difluoroethyl)-1H-pyrazol-4-yl)-2-(((1R,3S)-3-(5-fluoro-7-methyl-1H-benzo[d]imidazol-1-yl)cyclohexyl)amino)pyrimidine-5-carbonitrile]",< 50
10,"N#Cc1cnc(N[C@@H]2CCC[C@H](n3cnc4cccnc43)C2)nc1-c1c[nH]nc1C1CC1 [Example 21, 2-(((1R,3S)-3-(3H-Imidazo[4,5-b]pyridin-3-yl)cyclohexyl)amino)-4-(3-cyclopropyl-1H-pyrazol-4-yl)pyrimidine-5-carbonitrile]",< 50
11,"N#Cc1cnc(N[C@@H]2CCC[C@H](n3cnc4cc(F)cc(C#N)c43)C2)nc1-c1cnn(CC(F)F)c1 [Example 49, 1-((1S,3R)-3-((5-Cyano-4-(1-(2,2-difluoroethyl)-1H-pyrazol-4-yl)pyrimidin-2-yl)amino)cyclohexyl)-5-fluoro-1H-benzo[d]imidazole-7-carbonitrile]",< 50
12,"COc1ccc2ncn([C@H]3CCC[C@@H](Nc4ncc(C(F)(F)F)c(-c5cnn(CC(F)F)c5)n4)C3)c2n1 [Example 6, 4-(1-(2,2-Difluoroethyl)-1H-pyrazol-4-yl)-N-((1R,3S)-3-(5-methoxy-3H-imidazo[4,5-b]pyridin-3-yl)cyclohexyl)-5-(trifluoromethyl)pyrimidin-2-amine]",< 50
13,"N#Cc1cnc2c(c1)ncn2[C@H]1CCC[C@@H](Nc2ncc(C#N)c(-c3cnn(CC4CC4)c3)n2)C1 [Example 69, 3-((1S,3R)-3-((5-Cyano-4-(1-(cyclopropylmethyl)-1H-pyrazol-4-yl)pyrimidin-2-yl)amino)cyclohexyl)-3H-imidazo[4,5-b]pyridine-6-carbonitrile]",< 50
14,"N#Cc1cnc(N[C@@H]2CCC[C@H](n3cnc4cncc(Cl)c43)C2)nc1-c1cnn(CC(F)F)c1 [Example 45, 2-(((1R,3S)-3-(7-Chloro-1H-imidazo[4,5-c]pyridin-1-yl)cyclohexyl)amino)-4-(1-(2,2-difluoroethyl)-1H-pyrazol-4-yl)pyrimidine-5-carbonitrile]",< 50
15,"N#Cc1cnc(N[C@@H]2CCC[C@H](n3cnc4cncc(C#N)c43)C2)nc1-c1cnn(CC(F)F)c1 [Example 31, 1-((1S,3R)-3-((5-Cyano-4-(1-(2,2-difluoroethyl)-1H-pyrazol-4-yl)pyrimidin-2-yl)amino)cyclohexyl)-1H-imidazo[4,5-c]pyridine-7-carbonitrile]",< 50
16,"Cn1ncc(-c2nc(N[C@@H]3CCC[C@H](n4cnc5cccnc54)C3)ncc2C#N)c1C#N [Example 20, 2-(((1R,3S)-3-(3H-Imidazo[4,5-b]pyridin-3-yl)cyclohexyl)amino)-4-(5-cyano-1-methyl-1H-pyrazol-4-yl)pyrimidine-5-carbonitrile]",50 to 500

# The remaining lines, values ahead:
row,IC50 [nM],Compound
1,< 50,"Cc1ccnc2c1ncn2[C@H]1CCC[C@@H](Nc2ncc(C#N)c(-c3cnn(CC(F)F)c3)n2)C1 [Example 8, 4-(1-(2,2-Difluoroethyl)-1H-pyrazol-4-yl)-2-(((1R,3S)-3-(7-methyl-3H-imidazo[4,5-b]pyridin-3-yl)cyclohexyl)amino)pyrimidine-5-carbonitrile]"
2,< 50,"FC(F)Cn1cc(-c2nc(N[C@@H]3CCC[C@H](n4cnc5cc(N6CCCC6)cnc54)C3)ncc2C(F)(F)F)cn1 [Example 83, 4-(1-(2,2-Difluoroethyl)-1H-pyrazol-4-yl)-N-((1R,3S)-3-(6-(pyrrolidin-1-yl)-3H-imidazo[4,5-b]pyridin-3-yl)cyclohexyl)-5-(trifluoromethyl)pyrimidin-2-amine]"
3,< 50,"N#Cc1ccc2c(c1)ncn2[C@H]1CCC[C@@H](Nc2ncc(C#N)c(-c3cnn(CC(F)F)c3)n2)C1 [Example 86, 1-((1S,3R)-3-((5-Cyano-4-(1-(2,2-difluoroethyl)-1H-pyrazol-4-yl)pyrimidin-2-yl)amino)cyclohexyl)-1H-benzo[d]imidazole-5-carbonitrile]"
4,< 50,"Cc1cc(C#N)cc2ncn([C@H]3CCC[C@@H](Nc4ncc(C#N)c(-c5cnn(CC(F)F)c5)n4)C3)c12 [Example 55, 1-((1S,3R)-3-((5-Cyano-4-(1-(2,2-difluoroethyl)-1H-pyrazol-4-yl)pyrimidin-2-yl)amino)cyclohexyl)-7-methyl-1H-benzo[d]imidazole-5-carbonitrile]"
5,50 to 500,"N#Cc1ccc2c(ccn2[C@H]2CCC[C@@H](Nc3ncc(C(F)(F)F)c(-c4cnn(CC(F)F)c4)n3)C2)c1 [Example 16, 1-((1S,3R)-3-((4-(1-(2,2-Difluoroethyl)-1H-pyrazol-4-yl)-5-(trifluoromethyl)pyrimidin-2-yl)amino)cyclohexyl)-1H-indole-5-carbonitrile]"
6,< 50,"CC(C)n1cnc(-c2nc(N[C@@H]3CCC[C@H](n4cnc5cccnc54)C3)ncc2C#N)c1 [Example 27, 2-(((1R,3S)-3-(3H-Imidazo[4,5-b]pyridin-3-yl)cyclohexyl)amino)-4-(1-isopropyl-1H-imidazol-4-yl)pyrimidine-5-carbonitrile]"
7,< 50,"N#Cc1cnc2c(ccn2[C@H]2CCC[C@@H](Nc3ncc(C(F)(F)F)c(-c4cnn(CC(F)F)c4)n3)C2)c1 [Example 15, 1-((1S,3R)-3-((4-(1-(2,2-Difluoroethyl)-1H-pyrazol-4-yl)-5-(trifluoromethyl)pyrimidin-2-yl)amino)cyclohexyl)-1H-pyrrolo[2,3-b]pyridine-5-carbonitrile]"
8,50 to 500,"N#Cc1cc(C(F)(F)F)cc2ncn([C@H]3CCC[C@@H](Nc4ncc(C(F)(F)F)c(-c5cnn(CC(F)F)c5)n4)C3)c12 [Example 51, 1-((1S,3R)-3-((4-(1-(2,2-Difluoroethyl)-1H-pyrazol-4-yl)-5-(trifluoromethyl)pyrimidin-2-yl)amino)cyclohexyl)-5-(trifluoromethyl)-1H-benzo[d]imidazole-7-carbonitrile]"
